For the test, the system named is adult rat ventricular cardiomyocytes (ARVC). Description: Long-term culture survival of adult rat cardiomyocytes in normal or high glucose. The class given is cell-based. As to conditions: normal and hyperglycemic media, beyond day 14. The text has this:
Cardiomyocytes isolated from adult rats were exposed to ANXAsp (FIG. 3C and FIG. 3D) or the N-terminal 25mer Ac2-26 (FIG. 3E and FIG. 3F) in either normal glucose (NG) or high glucose (HG), respectively, for 26 days, Untreated control cells in normoglycemic and hyperglycemic media are presented in FIG. 3A and FIG. 3B,
Cardiomyocytes isolated from adult rat in both normal and hyperglycemic culture media were exposed directly to ANXA1sp. […] The cardioprotective effects of ANXA1sp was further examined in hyperglycemic exacerbation of myocardial injury due to simulated ischemia/reperfusion in vitro. Adult rat ventricular cardiomyocytes (ARVCs) were treated with/without either ANXA1sp or Ac2-26 in both normo- and hyperglycemic culture media for 24 hours. Cells were washed with deoxygenated glucose-free DMEM medium in an anaerobic chamber that filtrated a gas mixture of 5% CO2-10% H2-85% N2 and incubated for 2 hours. After oxygen/glucose deprivation (OGD), cells were cultured under normoxic conditions in a 5% CO2 incubator for 24 hours. Cells without OGD were used as a positive control. Cell death was determined by trypan blue exclusive staining. Cells were counted in triplicate wells and in eight random fields in each well.

No end group written: not given here.

With “Ac-Ala-Met-Val-Ser-Glu-Phe-Leu-Lys-Gln-Ala-Trp-Phe-Ile-Glu-Asn-Glu-Glu-Gln-Glu-Tyr-Val-Gln-Tyr-Val-Lys (Ac-AMVSEFLKQAWFIENEEQEYVQYVK) [Ac2-26, commercial annexin A1 N-terminal 25mer peptide, reference compound]”, the rod-shaped cardiomyocytes found entry is listed as “no rod-shaped cardiomyocytes were found”.

Source of the values: patent publication US8940697B2, “Compositions and methods for the treatment of myocardial ischemia/reperfusion injury with Annexin A1 short peptide” (Duke University, priority 2009, dated 2015).
